Measurements reported in PubChem BioAssay AID298 (DTP/NCI, 2004).
Values joined by “and” are separate entries in the source; they are usually repeats but may differ in a detail not shown here. Equal values may be shown once. Records with an inconclusive call do not appear.

System: MX-1 breast xenograft, intrarenal, nude mice, tumor weight
Test: NCI In Vivo Anticancer Drug Screen. Data for tumor model Human Mammary Carcinoma MX-1 Xenograft (intrarenal inoculation) in NU/NU BALB/C (nude) mice
Conditions: endpoint: mean tumor weight change, higher = larger tumour
Outline: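 Efficacy in vivo: tumor measurement or survival of treated animals divided by that of vehicle-dosed controls.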

[1] = dose: 50.0 mg/kg/injection, schedule: Q04DX003 (ip), vehicle: other
[2] = dose: 100.0 mg/kg/injection, schedule: Q04DX003 (ip), vehicle: other

## CCC1OC(OC)C=CC1=O (stereo not given)
dose: 18.75 mg/kg/injection, schedule: Q04DX003 (sc), vehicle: saline
  T/C: 112 % of control
dose: 37.5 mg/kg/injection, schedule: Q04DX003 (sc), vehicle: saline
  T/C: 63 % of control
dose: 75.0 mg/kg/injection, schedule: Q04DX003 (sc), vehicle: saline
  T/C: 98 % of control

## CCC(=O)N(C)[C@@H](C)C(=O)O[C@H]1CC(=O)N(C)c2cc(cc(OC)c2Cl)C/C(C)=C/C=C[C@@H](OC)[C@@]2(O)C[C@H](OC(=O)N2)[C@@H](C)[C@@H]2O[C@@]12C
dose: 0.12 mg/kg/injection, schedule: Q04DX003 (sc), vehicle: saline + alcohol
  T/C: 100 % of control
dose: 0.25 mg/kg/injection, schedule: Q04DX003 (sc), vehicle: saline + alcohol
  T/C: 48 % of control
dose: 0.5 mg/kg/injection, schedule: Q04DX003 (sc), vehicle: saline + alcohol
  T/C: 5 % of control
dose: 7.5 micrograms/kg/injection, schedule: Q04DX004 (ip), vehicle: saline + alcohol
  T/C: 115 % of control
dose: 15.0 micrograms/kg/injection, schedule: Q04DX004 (ip), vehicle: saline + alcohol
  T/C: 67 % of control

## CC(=O)NO
dose: 150.0 mg/kg/injection, schedule: Q04DX003 (ip), vehicle: water
  T/C: 78 % of control
dose: 300.0 mg/kg/injection, schedule: Q04DX003 (ip), vehicle: water
  T/C: 113 % of control
dose: 600.0 mg/kg/injection, schedule: Q04DX003 (ip), vehicle: water
  T/C: 79 % of control
dose: 1200.0 mg/kg/injection, schedule: Q04DX003 (ip), vehicle: water
  T/C: 74 % of control

## Cc1cc(O)c2c(c1O)C(=O)C13C(=C2O)C(=O)C2C(O)C1C1C(O)C3C(=O)C3=C(O)c4c(O)cc(C)c(O)c4C(=O)C321 (stereo not given)
dose: 12.5 mg/kg/injection, schedule: Q04DX003 (ip), vehicle: saline with Tween-80
  T/C: 107 % of control
dose: 25.0 mg/kg/injection, schedule: Q04DX003 (ip), vehicle: saline with Tween-80
  T/C: 76 % of control

## CCN(CC)c1cc(C(=O)O)cc(N(CC)CC)n1
[1]
  T/C: 155 % of control
[2]
  T/C: 74 % of control

## O=c1[nH]c(=O)n(C2CC(O)C(CO)O2)cc1F (stereo not given)
dose: 25.0 mg/kg/injection, schedule: Q01DX010 (sc), vehicle: water
  T/C: 47 % of control and 68 % of control
dose: 100.0 mg/kg/injection, schedule: Q01DX010 (sc), vehicle: water
  T/C: 15 % of control and 18 % of control

## O=C1[C@@H]2C3C=CC([C@H]4C(=O)N(CO)C(=O)[C@@H]34)[C@@H]2C(=O)N1CO
dose: 100.0 mg/kg/injection, schedule: Q04DX003 (ip), vehicle: Klucel (hydroxypropylcellulose) (HPC)
  T/C: 78 % of control
dose: 200.0 mg/kg/injection, schedule: Q04DX003 (ip), vehicle: Klucel (hydroxypropylcellulose) (HPC)
  T/C: 52 % of control

## O=C[C@@H](CO)O[C@H](C=O)c1c[nH]c(=O)[nH]c1=O
dose: 25.0 mg/kg/injection, schedule: Q04DX003 (ip), vehicle: saline
  T/C: 71 % of control
dose: 37.5 mg/kg/injection, schedule: Q04DX003 (ip), vehicle: saline
  T/C: 54 % of control
dose: 100.0 mg/kg/injection, schedule: Q04DX003 (ip), vehicle: saline
  T/C: 5 % of control and 9 % of control and 28 % of control
dose: 125.0 mg/kg/injection, schedule: Q04DX003 (ip), vehicle: saline
  T/C: 4 % of control and 7 % of control

## COc1ccc2[nH]c3ccc4cc[n+](CCN5CCC(C6CCN(CC[n+]7ccc8ccc9[nH]c%10ccc(OC)cc%10c9c8c7)CC6)CC5)cc4c3c2c1
dose: 4.0 mg/kg/injection, schedule: Q04DX003 (ip), vehicle: water
  T/C: 100 % of control
dose: 8.0 mg/kg/injection, schedule: Q04DX003 (ip), vehicle: other
  T/C: 69 % of control
dose: 8.0 mg/kg/injection, schedule: Q04DX003 (ip), vehicle: water
  T/C: 38 % of control
dose: 16.0 mg/kg/injection, schedule: Q04DX003 (ip), vehicle: other
  T/C: 92 % of control
dose: 16.0 mg/kg/injection, schedule: Q04DX003 (ip), vehicle: water
  T/C: 35 % of control
dose: 23.04 mg/kg/injection, schedule: Q04DX003 (ip), vehicle: other
  T/C: 101 % of control
dose: 32.0 mg/kg/injection, schedule: Q04DX003 (ip), vehicle: other
  T/C: 86 % of control
dose: 32.0 mg/kg/injection, schedule: Q04DX003 (ip), vehicle: water
  T/C: 35 % of control
dose: 38.4 mg/kg/injection, schedule: Q04DX003 (ip), vehicle: other
  T/C: 53 % of control
dose: 64.0 mg/kg/injection, schedule: Q04DX003 (ip), vehicle: other
  T/C: 32 % of control and 42 % of control
dose: 64.0 mg/kg/injection, schedule: Q04DX003 (ip), vehicle: water
  T/C: 8 % of control

## Cc1ccc(/C=C/C(=O)/C=C/c2ccc(C)o2)o1
dose: 100.0 mg/kg/injection, schedule: Q04DX003 (ip), vehicle: DMSO
  T/C: 94 % of control
dose: 200.0 mg/kg/injection, schedule: Q04DX003 (ip), vehicle: DMSO
  T/C: 112 % of control
dose: 800.0 mg/kg/injection, schedule: Q04DX003 (ip), vehicle: DMSO
  T/C: 107 % of control

## O=c1[nH]cnc2c1cnn2CN1CCOCC1
dose: 150.0 mg/kg/injection, schedule: Q04DX003 (ip), vehicle: Klucel (hydroxypropylcellulose) (HPC)
  T/C: 96 % of control
dose: 300.0 mg/kg/injection, schedule: Q04DX003 (ip), vehicle: Klucel (hydroxypropylcellulose) (HPC)
  T/C: 65 % of control

## C[C@]12CC[C@H](O)CC1=CC[C@@H]1[C@@H]2CC[C@]2(C)C(=O)CC[C@@H]12
dose: 300.0 mg/kg/injection, schedule: Q04DX003 (sc), vehicle: saline with Tween-80
  T/C: 77 % of control
dose: 600.0 mg/kg/injection, schedule: Q04DX003 (sc), vehicle: saline with Tween-80
  T/C: 76 % of control
dose: 1200.0 mg/kg/injection, schedule: Q04DX003 (sc), vehicle: saline with Tween-80
  T/C: 63 % of control
dose: 2400.0 mg/kg/injection, schedule: Q04DX003 (sc), vehicle: saline with Tween-80
  T/C: 68 % of control

## COc1cccc2c1C(=O)c1c(O)c3c(c(O)c1C2=O)CC(O)(/C(C)=N/NC(=O)CCCCC(=O)N/N=C(\C)C1(O)Cc2c(O)c4c(c(O)c2C(OC2CC(N)C(O)C(C)O2)C1)C(=O)c1c(OC)cccc1C4=O)CC3OC1CC(N)C(O)C(C)O1 (stereo not given)
dose: 12.5 mg/kg/injection, schedule: Q04DX003 (sc), vehicle: water
  T/C: 41 % of control
dose: 25.0 mg/kg/injection, schedule: Q04DX003 (sc), vehicle: water
  T/C: 5 % of control
dose: 50.0 mg/kg/injection, schedule: Q04DX003 (sc), vehicle: water
  T/C: -56 % of control

## NC(Cc1ccccc1)C(=O)OCN1C(=O)C2C3C=CC(C2C1=O)C1C2C(=O)N(COC(=O)C(N)Cc4ccccc4)C(=O)C2C31 (stereo not given)
dose: 21.6 mg/kg/injection, schedule: Q01DX009 (ip), vehicle: water
  T/C: 76 % of control
dose: 25.0 mg/kg/injection, schedule: Q04DX003 (ip), vehicle: other
  T/C: 94 % of control
dose: 30.9 mg/kg/injection, schedule: Q01DX009 (ip), vehicle: water
  T/C: 57 % of control
dose: 44.1 mg/kg/injection, schedule: Q01DX009 (ip), vehicle: water
  T/C: 111 % of control
[1]
  T/C: 86 % of control
dose: 63.0 mg/kg/injection, schedule: Q01DX009 (ip), vehicle: water
  T/C: 52 % of control
dose: 90.0 mg/kg/injection, schedule: Q01DX009 (ip), vehicle: water
  T/C: 24 % of control
[2]
  T/C: 65 % of control
dose: 200.0 mg/kg/injection, schedule: Q04DX003 (ip), vehicle: other
  T/C: 39 % of control

## COc1cc2c(c(OC)c1O)-c1ccc(OC)c(=O)cc1[C@@H](NC(=O)C(F)(F)F)CC2
dose: 2.5 mg/kg/injection, schedule: Q04DX003 (ip), vehicle: Klucel (hydroxypropylcellulose) (HPC)
  T/C: 62 % of control
dose: 5.0 mg/kg/injection, schedule: Q04DX003 (ip), vehicle: Klucel (hydroxypropylcellulose) (HPC)
  T/C: 60 % of control
dose: 10.0 mg/kg/injection, schedule: Q04DX003 (ip), vehicle: Klucel (hydroxypropylcellulose) (HPC)
  T/C: 35 % of control
dose: 20.0 mg/kg/injection, schedule: Q04DX003 (ip), vehicle: Klucel (hydroxypropylcellulose) (HPC)
  T/C: 34 % of control

## CN(C)N=Nc1ccc(C(N)=O)cc1
dose: 50.0 mg/kg/injection, schedule: Q04DX003 (ip), vehicle: saline with Tween-80
  T/C: 85 % of control
dose: 100.0 mg/kg/injection, schedule: Q04DX003 (ip), vehicle: saline with Tween-80
  T/C: 78 % of control
dose: 200.0 mg/kg/injection, schedule: Q04DX003 (ip), vehicle: saline with Tween-80
  T/C: 80 % of control

## CCCCCCCCCCCCCCCCP(=O)(OCCOCCCCCC)OCCOCCCCCC
dose: 150.0 mg/kg/injection, schedule: Q04DX003 (sc), vehicle: saline
  T/C: 102 % of control
dose: 300.0 mg/kg/injection, schedule: Q04DX003 (sc), vehicle: saline
  T/C: 97 % of control
dose: 600.0 mg/kg/injection, schedule: Q04DX003 (sc), vehicle: saline
  T/C: 70 % of control

## COc1cc([C@@H]2c3cc4c(cc3[C@@H](OC3OC5CO[C@@H](c6cccs6)OC5C(O)C3O)[C@H]3COC(=O)[C@H]23)OCO4)cc(OC)c1O (stereo not given in full)
dose: 8.75 mg/kg/injection, schedule: Q01DX010 (ip), vehicle: saline
  T/C: 82 % of control
dose: 17.5 mg/kg/injection, schedule: Q01DX010 (ip), vehicle: saline
  T/C: 74 % of control

## Nc1ccn(C2OC(CO)C(O)C2O)c(=O)n1 (stereo not given)
dose: 500.0 mg/kg/injection, schedule: Q04DX003 (sc), vehicle: saline
  T/C: 57 % of control
dose: 1000.0 mg/kg/injection, schedule: Q04DX003 (sc), vehicle: saline
  T/C: 68 % of control
